Data published in patent US8435978B2, “Substituted sulfonamide compounds” (Gruenenthal GmbH, priority 2006, dated 2013).
Counter-ions that a name gives are not always drawn.

Experiments:
[1] = target: T1, B1R receptor of the rat (Rattus norvegicus, UniProt P97583); experiment: Functional study on the bradykinin receptor 1 (B1R), FLIPR Ca2+ assay, rB1R cells; type: cell-based; details: agonist Des-Arg9-bradykinin 100 nM, % inhibition compared with the maximum achievable inhibition; for inhibition at 10 µM: CHO-K1, test substance 10 μM, read-out: B1R Antagonism, rat [10 μM] % Inhibition; for B1R Antagonism, rat [10 μM] % Inhibition: test substance 10 μM, rB1R CHO K1 cells
T1 construct: host or cells: CHO K1 cells (Chinese hamster ovary), stably transfected
T1 sequence (P97583 1-337): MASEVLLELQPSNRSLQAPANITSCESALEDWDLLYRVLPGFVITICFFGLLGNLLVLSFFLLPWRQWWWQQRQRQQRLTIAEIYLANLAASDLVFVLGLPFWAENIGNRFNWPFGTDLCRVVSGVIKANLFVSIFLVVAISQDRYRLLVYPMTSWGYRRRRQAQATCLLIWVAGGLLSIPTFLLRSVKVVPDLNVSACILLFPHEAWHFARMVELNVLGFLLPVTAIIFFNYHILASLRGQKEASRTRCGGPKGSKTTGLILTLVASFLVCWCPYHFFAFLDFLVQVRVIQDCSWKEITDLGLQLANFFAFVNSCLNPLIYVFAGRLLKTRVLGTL
Outline: (§1)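 FLIPR Ca2+ assay in recombinant CHO K1 cells (human or rat B1R), Fluo-4 dye; 10 μM compound, 10 min, then EC-level agonist per species (0.5 nM Lys-Des-Arg9-BK human / 100 nM Des-Arg9-BK rat). Output: % inhibition vs maximum.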

[2] = target: T2, human B1R receptor (Homo sapiens, UniProt P46663); experiment: Functional study on the bradykinin receptor 1 (B1R), FLIPR Ca2+ assay, hB1R cells; type: cell-based; details: agonist Lys-Des-Arg9-bradykinin 0.5 nM, % inhibition compared with the maximum achievable inhibition; for inhibition at 10 µM: CHO-K1, test substance 10 μM, read-out: B1R Antagonism, human [10 μM] % Inhibition; for B1R Antagonism, human [10 μM] % Inhibition: test substance 10 μM, hB1R CHO K1 cells
T2 construct: host or cells: CHO K1 cells (Chinese hamster ovary), stably transfected
T2 sequence (P46663 1-353): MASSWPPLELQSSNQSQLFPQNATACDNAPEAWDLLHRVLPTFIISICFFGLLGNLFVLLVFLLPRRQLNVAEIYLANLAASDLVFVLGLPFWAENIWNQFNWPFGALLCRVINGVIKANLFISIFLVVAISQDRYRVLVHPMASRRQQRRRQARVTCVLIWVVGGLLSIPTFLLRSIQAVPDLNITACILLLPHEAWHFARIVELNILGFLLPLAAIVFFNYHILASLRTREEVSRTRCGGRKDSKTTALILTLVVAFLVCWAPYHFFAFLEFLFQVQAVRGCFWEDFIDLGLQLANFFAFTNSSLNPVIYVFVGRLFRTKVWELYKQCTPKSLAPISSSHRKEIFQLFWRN
Outline: as §1

Row | inhibition at 10 µM [1] | inhibition at 10 µM [2] | B1R Antagonism, rat [10 μM] % Inhibition [1] | B1R Antagonism, human [10 μM] % Inhibition [2] | Structure (SMILES)
1 | 4.42% | 44.9% |  |  | O=C(COCC1Cc2ccccc2CN1S(=O)(=O)c1ccc(Cl)c(Cl)c1)N1CCCC1CN1CCCCC1 (stereo not drawn) [Example 82, 2-[2-(3,4-dichloro-phenylsulfonyl)-1,2,3,4-tetrahydro-isoquinolin-3-ylmethoxy]-1-(2-piperidin-1-ylmethyl-pyrrolidin-1-yl)-ethanone]
2 | 84.6% | 97.1% |  |  | COc1cc(C)c(S(=O)(=O)N2CCCC2COCC(=O)N2CCC(c3cccnc3)C2)c(C)c1 (stereo not drawn) [Example 272, 2-((1-(4-methoxy-2,6-dimethylphenylsulfonyl)pyrrolidin-2-yl)methoxy)-1-(3-(pyridin-3-yl)pyrrolidin-1-yl)ethanone]
3 | 101% | 50.2% |  |  | COc1cc(C)c(S(=O)(=O)N2CCCCC2COCC(=O)NCCn2nccc2C)c(C)c1 (stereo not drawn) [Example 416, 2-((1-(4-methoxy-2,6-dimethylphenylsulfonyl)piperidin-2-yl)methoxy)-N-(2-(5-methyl-1H-pyrazol-1-yl)ethyl)acetamide]
4 | 100% | 104% |  |  | COc1ccc(N2CCN(C(=O)COCC3CCCCN3S(=O)(=O)c3c(Cl)cccc3Cl)CC2)cc1 (stereo not drawn) [Example 319, 2-((1-(2,6-dichlorophenylsulfonyl)piperidin-2-yl)methoxy)-1-(4-(4-methoxyphenyl)piperazin-1-yl)ethanone]
5 | 106% | 39.8% |  |  | COc1cc(C)c(S(=O)(=O)N2CCCCC2COCC(=O)Nc2cc(-c3ccccc3)n[nH]2)c(C)c1 (stereo not drawn) [Example 545, 2-((1-(4-methoxy-2,6-dimethylphenylsulfonyl)piperidin-2-yl)methoxy)-N-(3-phenyl-1H-pyrazol-5-yl)acetamide]
6 | 99.7% | 91.1% |  |  | COc1ccc(S(=O)(=O)N2Cc3ccccc3C[C@H]2COCC(=O)N2CCC(CCN3CCCC3)CC2)cc1 [Example 182, (S)-2-((2-(4-methoxyphenylsulfonyl)-1,2,3,4-tetrahydroisoquinolin-3-yl)methoxy)-1-(4-(2-(pyrrolidin-1-yl)ethyl)piperidin-1-yl)ethanone]
7 |  |  | 25.48% | 57.92% | O=C(COCC1CCCCN1S(=O)(=O)c1cccc2ccccc12)N1CCCC1CN1CCCCC1 (stereo not drawn) [Example 64, 2-[1-(naphthyl-1-sulfonyl)-piperidin-2-ylmethoxy]-1-(2-piperidin-1-ylmethyl-pyrrolidin-1-yl)-ethanone]
8 |  |  | 100.94% | 48.25% | COc1cc(C)c(S(=O)(=O)N2CCCCC2COCC(=O)NCc2ccc(N3CCOCC3)cc2)c(C)c1 (stereo not drawn) [Example 439, 2-((1-(4-methoxy-2,6-dimethylphenylsulfonyl)piperidin-2-yl)methoxy)-N-(4-morpholinobenzyl)acetamide]

The remaining lines, values behind:

Row | Structure (SMILES) | inhibition at 10 µM [1] | inhibition at 10 µM [2] | B1R Antagonism, rat [10 μM] % Inhibition [1] | B1R Antagonism, human [10 μM] % Inhibition [2]
9 | COc1cc(C)c(S(=O)(=O)N2CCCCC2COCC(=O)Nc2cc(-c3ccccc3OC)[nH]n2)c(C)c1 (stereo not drawn) [Example 540, 2-((1-(4-methoxy-2,6-dimethylphenylsulfonyl)piperidin-2-yl)methoxy)-N-(5-(2-methoxyphenyl)-1H-pyrazol-3-yl)acetamide] | 100% | 7.17% |  | 
10 | O=C(COCC1CCCN1S(=O)(=O)c1c(Cl)cc(Cl)cc1Cl)N1CCC(CCN2CCCCC2)CC1 (stereo not drawn) [Example 331, 1-(4-(2-(piperidin-1-yl)ethyl)piperidin-1-yl)-2-((1-(2,4,6-trichlorophenylsulfonyl)pyrrolidin-2-yl)methoxy)ethanone] | 101% | 106% |  | 
11 | COc1cc(C)c(S(=O)(=O)N2CCCCC2COCC(=O)N(C)CCN2CCCCC2)c(C)c1 (stereo not drawn) [Example 532, 2-((1-(4-methoxy-2,6-dimethylphenylsulfonyl)piperidin-2-yl)methoxy)-N-methyl-N-(2-(piperidin-1-yl)ethyl)acetamide] | 108% | 96.4% |  | 
12 | O=C(COCC1CCCCN1S(=O)(=O)c1ccc(Cl)c(Cl)c1)N1CCN(Cc2ccc3c(c2)OCO3)CC1 (stereo not drawn) [Example 39, 1-(4-benzo[1,3]dioxol-5-ylmethyl-piperazin-1-yl)-2-[1-(3,4-dichloro-phenylsulfonyl)-piperidin-2-ylmethoxy]-ethanone] | 0% | 73.2% |  | 
13 | CN(C)Cc1ccc(CNC(=O)COCC2CCCN2S(=O)(=O)c2c(Cl)cc(Cl)cc2Cl)cc1 (stereo not drawn) [Example 73, N-(4-dimethylaminomethyl-benzyl)-2-[1-(2,4,6-trichloro-phenylsulfonyl)-pyrrolidin-2-ylmethoxy]-acetamide] | 106% | 51% |  | 
14 | O=C(COCC1CCCCN1S(=O)(=O)c1c(Cl)cccc1Cl)N1CCN(c2ccccn2)CC1 (stereo not drawn) [Example 316, 2-((1-(2,6-dichlorophenylsulfonyl)piperidin-2-yl)methoxy)-1-(4-(pyridin-2-yl)piperazin-1-yl)ethanone] | 98.2% | 82.7% |  | 
15 | CC(C)N(Cc1ccc(N(C)C)cc1)C(=O)COCC1CCCCN1S(=O)(=O)c1c(Cl)cccc1Cl (stereo not drawn) [Example 530, 2-((1-(2,6-dichlorophenylsulfonyl)piperidin-2-yl)methoxy)-N-(4-(dimethylamino)benzyl)-N-isopropylacetamide] | 101% | 93.1% |  | 
16 | COc1cc(C)c(S(=O)(=O)N2CCCCC2COCC(=O)N2CCN(c3cccc(Cl)c3)CC2)c(C)c1 (stereo not drawn) [Example 511, 1-(4-(3-chlorophenyl)piperazin-1-yl)-2-((1-(4-methoxy-2,6-dimethylphenylsulfonyl)piperidin-2-yl)methoxy)ethanone] | 103% | 87% |  | 
17 | CN1CCN(C2CCN(C(=O)COCC3CCCCN3S(=O)(=O)c3cccc4ccccc34)CC2)CC1 (stereo not drawn) [Example 230, 1-(4-(4-methylpiperazin-1-yl)piperidin-1-yl)-2-((1-(naphthen-1-ylsulfonyl)piperidin-2-yl)methoxy)ethanone] |  |  | 62.33% | 95.42%
18 | CN1CCC(N2CCN(C(=O)COCC3CCCCN3S(=O)(=O)c3cccc4cccnc34)CC2)CC1 (stereo not drawn) [Example 175, 1-(4-(1-methylpiperidin-4-yl)piperazin-1-yl)-2-((1-(quinolin-8-ylsulfonyl)piperidin-2-yl)methoxy)ethanone dihydrochloride] | 86.3% | 103% |  | 
19 | O=C(COCC1CCCCN1S(=O)(=O)c1c(Cl)cc(Cl)cc1Cl)NCc1ccc(N2CCCCC2)cc1 (stereo not drawn) [Example 74, N-(4-piperidin-1-yl-benzyl)-2-[1-(2,4,6-trichloro-phenylsulfonyl)-piperidin-2-yl-methoxy]-acetamide] | 103% | 50.4% |  | 
20 | COc1cc(C)c(S(=O)(=O)N2CCCC2COCC(=O)N2CCN(c3ccccc3OC)CC2)c(C)c1 (stereo not drawn) [Example 491, 2-((1-(4-methoxy-2,6-dimethylphenylsulfonyl)pyrrolidin-2-yl)methoxy)-1-(4-(2-methoxyphenyl)piperazin-1-yl)ethanone] | 97.9% | 96.3% |  | 
21 | CN1CCC(N2CCN(C(=O)COCC3CCCCN3S(=O)(=O)c3cc4ccccc4s3)CC2)CC1 (stereo not drawn) [Example 171, 2-((1-(benzo[b]thiophen-2-ylsulfonyl)piperidin-2-yl)methoxy)-1-(4-(1-methylpiperidin-4-yl)piperazin-1-yl)ethanone] | 82.8% | 102% |  | 
22 | COc1cc(C)c(S(=O)(=O)N2CCCCC2COCC(=O)N(C)CCc2ccncc2)c(C)c1 (stereo not drawn) [Example 239, 2-((1-(4-methoxy-2,6-dimethylphenylsulfonyl)piperidin-2-yl)methoxy)-N-methyl-N-(2-(pyridin-4-yl)ethyl)acetamide] | 99.7% | 94.7% |  | 
23 | COc1cc(C)c(S(=O)(=O)N2CCCC2COCC(=O)NCCCN2CCN(Cc3ccccc3)CC2)c(C)c1 (stereo not drawn) [Example 521, N-(3-(4-benzylpiperazin-1-yl)propyl)-2-((1-(4-methoxy-2,6-dimethylphenylsulfonyl)pyrrolidin-2-yl)methoxy)acetamide] | 99.3% | 85.2% |  | 
24 | COc1cc(C)c(S(=O)(=O)N2CCCC2COCC(=O)NC(CN2CCOCC2)c2ccccc2)c(C)c1 (stereo not drawn) [Example 500, 2-((1-(4-methoxy-2,6-dimethylphenylsulfonyl)pyrrolidin-2-yl)methoxy)-N-(2-morpholino-1-phenylethyl)acetamide] | 93.2% | 41.8% |  | 
